Measured values as given in PMC8777265, “The Environmental Pollutant Bromophenols Interfere With Sulfotransferase That Mediates Endocrine Hormones” (Frontiers in Endocrinology, 2022).
pIC50, pKi: −log10 of the molar value.

Legend:
Assay type in all cases: biochemical
SULT1A3 [1] = molecular target: T1, SULT1A3 (Homo sapiens, UniProt P0DMM9); assay: PNP sulfation, UPLC-UV, […] inhibitor
T1 construct: recombinant human enzyme, commercial (BD Gentest)

SULT1A1 [2] = molecular target: T2, SULT1A1 (Homo sapiens, UniProt P50225); assay: PNP sulfation, UPLC-UV, […] inhibitor
T2 construct: recombinant human enzyme, commercial (BD Gentest)

SULT1B1 [3] = molecular target: T3, SULT1B1 (Homo sapiens, UniProt O43704); assay: PNP sulfation, UPLC-UV, […] inhibitor
T3 construct: recombinant human enzyme, commercial (BD Gentest)

SULT1A3 [4] = molecular target: T1, SULT1A3; assay: PNP sulfation, UPLC-UV, Lineweaver-Burk with slope replot
SULT1E1 = molecular target: T4, SULT1E1 (Homo sapiens, UniProt P49888); assay: PNP sulfation, UPLC-UV, […] inhibitor
T4 construct: recombinant human enzyme, commercial (BD Gentest)
T4 sequence (P49888 1-294): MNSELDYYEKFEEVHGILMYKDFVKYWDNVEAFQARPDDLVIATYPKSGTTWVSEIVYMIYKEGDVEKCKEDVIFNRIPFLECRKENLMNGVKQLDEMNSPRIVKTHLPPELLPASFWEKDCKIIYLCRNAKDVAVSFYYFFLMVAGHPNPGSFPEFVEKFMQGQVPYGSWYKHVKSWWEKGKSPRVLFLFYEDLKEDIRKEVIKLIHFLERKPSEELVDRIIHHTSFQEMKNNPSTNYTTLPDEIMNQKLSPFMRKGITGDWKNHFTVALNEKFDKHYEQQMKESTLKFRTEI

SULT1B1 [5] = molecular target: T3, SULT1B1; assay: PNP sulfation, UPLC-UV, single-concentration screen; settings: 25 µM PNP, 40 µM PAPS, 5 mM MgCl2, 100 mM Tris-HCl pH 7.4, 37 °C
SULT1A1 [6] = molecular target: T2, SULT1A1; assay: as above; settings: 40 µM PNP, 40 µM PAPS, 5 mM MgCl2, 100 mM Tris-HCl pH 7.4, 37 °C

T2 sequence (P50225 whole entry): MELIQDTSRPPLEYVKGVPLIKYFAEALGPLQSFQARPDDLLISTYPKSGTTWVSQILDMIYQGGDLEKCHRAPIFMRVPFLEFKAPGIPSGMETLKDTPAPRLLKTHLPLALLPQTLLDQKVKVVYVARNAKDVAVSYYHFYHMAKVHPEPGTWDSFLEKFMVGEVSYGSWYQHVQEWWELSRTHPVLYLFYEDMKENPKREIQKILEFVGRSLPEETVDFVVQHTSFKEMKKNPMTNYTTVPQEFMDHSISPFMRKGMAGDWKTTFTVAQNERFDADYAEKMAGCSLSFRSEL
T3 sequence (O43704 whole entry): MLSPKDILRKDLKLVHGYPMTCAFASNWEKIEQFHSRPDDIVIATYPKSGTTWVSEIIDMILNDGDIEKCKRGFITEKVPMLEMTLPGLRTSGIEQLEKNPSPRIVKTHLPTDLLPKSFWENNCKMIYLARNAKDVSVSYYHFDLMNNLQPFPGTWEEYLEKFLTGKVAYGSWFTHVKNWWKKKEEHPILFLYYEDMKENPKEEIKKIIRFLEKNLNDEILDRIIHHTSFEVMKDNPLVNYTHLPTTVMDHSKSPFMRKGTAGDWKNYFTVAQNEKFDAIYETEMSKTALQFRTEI
T1 sequence (P0DMM9 whole entry): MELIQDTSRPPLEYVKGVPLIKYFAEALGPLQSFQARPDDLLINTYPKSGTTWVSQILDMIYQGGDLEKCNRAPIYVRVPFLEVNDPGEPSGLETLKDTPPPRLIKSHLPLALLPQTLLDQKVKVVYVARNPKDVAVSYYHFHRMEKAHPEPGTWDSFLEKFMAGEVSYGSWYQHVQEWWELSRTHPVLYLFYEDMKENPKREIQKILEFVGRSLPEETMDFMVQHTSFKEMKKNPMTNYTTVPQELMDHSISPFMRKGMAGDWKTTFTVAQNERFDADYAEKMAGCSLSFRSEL

| Compound | pIC50 (SULT1A3 [1]) | pIC50 (SULT1A1 [2]) | pIC50 (SULT1B1 [3]) | pKi (SULT1A3 [4]) | pIC50 (SULT1E1) | % inhibition at 100 μM (SULT1B1 [5]) | % inhibition at 100 μM (SULT1A1 [6]) |
| --- | --- | --- | --- | --- | --- | --- | --- |
| Oc1c(Br)cc(Br)cc1Br [2,4,6-TBP] | 5.40 | 5.99 | 5.98 | 4.79 | 5.22 | – | – |
| Oc1ccc(Br)cc1Br [2,4-DBP] | 4.59 | 5.99 | 5.37 | – | 5.49 | – | – |
| Oc1cc(Br)ccc1Br [2,5-DBP] | 4.89 | 5.91 | 5.27 | – | – | – | – |
| Oc1ccccc1Br [2-BP] | 5.05 | 5.99 | 5.97 | – | 4.59 | – | – |
| Oc1cccc(Br)c1 [3-BP] | – | – | – | – | – | 3-BP and 4-BP only showed strong inhibition ability towards SULT1A1 and SULT1B1 | 3-BP and 4-BP only showed strong inhibition ability towards SULT1A1 and SULT1B1 |
